System: E. coli BUM1 transformed with pAH29 (bacterial AHASII)
Test: Growth on M9 plates with SMM, bacteria transformed with pAH29
Assay type: cell-based, Escherichia coli
Conditions: 50 μM SMM, 48 hrs, 37° C.
Method: This strain also requires proline and thiamin, regardless of AHAS expression. Transformation of BUM1 cells was achieved using a standard heat shock protocol. BUM1 cells were grown in LB or in M9 minimal medium (7 mg/ml Na2HPO4; 3 mg/ml KH2PO4; 0.5 mg/ml NaCl; 1 mg/ml NH4Cl; 0.12 mg/ml MgSO4; 0.35 mg/ml thiamin HCl; 2 mg/ml glucose) supplemented with 200 μg/ml proline. Where appropriate, the M9 medium was supplemented with the BCAAs valine, leucine, and isoleucine (150 μg/ml of each) or with 50 μM SMM. BUM1 transformants were propagated and kept on LB medium supplemented with 100 μg/ml Ampicillin. For functional expression assays, the cells were washed and plated on M9 agar plates and incubated for 48 hrs at 37° C. […]
The expression vector pEp-empty, an empty plasmid that retains the native ilvEp promoter and ATG start codon, was created by amplification of pAH29 plasmid with the pAH29-empty primer set, and included BamHI and SalI restriction sites for future fusion with the algal genes. Three forms of PiAHAS genes were used for this experiment: PiAHAS full open reading frame (ORF), truncated PiAHAS without the estimated chloroplast targeting peptide (from Serine91), and PimAHAS containing the point mutation (W605S). […] The plates were incubated for 48 hrs (FIG. 3) and bacterial growth was determined. […]

COC(=O)c1ccccc1S(=O)(=O)NC(=O)Nc1nc(C)cc(C)n1 [SMM, sulfometuron methyl]
bacterial growth in presence of SMM: able to grow slowly

Source: patent publication US9267129B2, “Compositions and methods for conferring herbicide resistance” (BEN-GURION UNIVERSITY OF THE NEGEV RESEARCH AND DEVELOPMENT …, priority 2011, dated 2016)
